{"source": "ChEMBL document CHEMBL1201862", "about": "“PubChem BioAssay data set” (2004)", "test_in_all_cases": "DTP human tumour cell line panel, 48 h", "key": {"786-0": {"system": "786-0"}, "A498": {"system": "A498"}, "A549": {"system": "A549"}, "ACHN": {"system": "ACHN"}, "BT-549": {"system": "BT-549"}, "CAKI-1": {"system": "CAKI-1"}, "CCRF-CEM": {"system": "CCRF-CEM"}, "COLO 205": {"system": "COLO 205"}, "DU-145": {"system": "DU-145"}, "EKVX": {"system": "EKVX"}, "HCC 2998": {"system": "HCC 2998"}, "HCT-116": {"system": "HCT-116"}, "HCT-15": {"system": "HCT-15"}, "HL-60": {"system": "HL-60"}, "HOP-62": {"system": "HOP-62"}, "HOP-92": {"system": "HOP-92"}, "HT-29": {"system": "HT-29"}, "Hs-578T": {"system": "Hs-578T"}, "IGROV-1": {"system": "IGROV-1"}, "K562": {"system": "K562"}, "KM12": {"system": "KM12"}, "LOX IMVI": {"system": "LOX IMVI"}, "M14": {"system": "M14"}, "MCF7": {"system": "MCF7"}, "MDA-MB-231": {"system": "MDA-MB-231"}, "MDA-MB-435": {"system": "MDA-MB-435"}, "MDA-N": {"system": "MDA-N"}, "MOLT-4": {"system": "MOLT-4"}, "Malme-3M": {"system": "Malme-3M"}, "NCI-H226": {"system": "NCI-H226"}, "NCI-H23": {"system": "NCI-H23"}, "NCI-H460": {"system": "NCI-H460"}, "NCI-H522": {"system": "NCI-H522"}, "NCI/ADR-RES": {"system": "NCI/ADR-RES"}, "OVCAR-3": {"system": "OVCAR-3"}, "OVCAR-4": {"system": "OVCAR-4"}, "OVCAR-5": {"system": "OVCAR-5"}, "OVCAR-8": {"system": "OVCAR-8"}, "PC-3": {"system": "PC-3"}, "RPMI-8226": {"system": "RPMI-8226"}, "RXF 393": {"system": "RXF 393"}, "SF-268": {"system": "SF-268"}, "SF-295": {"system": "SF-295"}, "SF-539": {"system": "SF-539"}, "SK-MEL-28": {"system": "SK-MEL-28"}, "SK-MEL-2": {"system": "SK-MEL-2"}, "SK-MEL-5": {"system": "SK-MEL-5"}, "SK-OV-3": {"system": "SK-OV-3"}, "SN12C": {"system": "SN12C"}, "SNB-19": {"system": "SNB-19"}, "SNB-75": {"system": "SNB-75"}, "SR": {"system": "SR"}, "SW-620": {"system": "SW-620"}, "T47D": {"system": "T47D"}, "TK-10": {"system": "TK-10"}, "U-251": {"system": "U-251"}, "UACC-257": {"system": "UACC-257"}, "UACC-62": {"system": "UACC-62"}, "UO-31": {"system": "UO-31"}}, "note": "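Growth conditions: 96-well plates. Treatment: test compound, 48 hours, 5 concentrations. Analysis: linear interpolation between bracketing concentrations; unreached endpoints set to highest concentration. At the GI50, growth is halved.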 The source made the active and inactive calls. No stated cut-off is given here; in the data, active = GI50 up to about 1.1 µM and inactive = higher.", "data": [{"smiles": "COc1ccc2ccccc2c1/C=C/C(=O)c1ccccc1", "values": [{"measurement": "GI50", "setting": "786-0", "value": "2870 nM (inactive)"}, {"measurement": "GI50", "setting": "A498", "value": "3560 nM (inactive)"}, {"measurement": "GI50", "setting": "A549", "value": "2650 nM (inactive)"}, {"measurement": "GI50", "setting": "ACHN", "value": "3330 nM (inactive)"}, {"measurement": "GI50", "setting": "BT-549", "value": "2960 nM (inactive)"}, {"measurement": "GI50", "setting": "CAKI-1", "value": "4800 nM (inactive)"}, {"measurement": "GI50", "setting": "CCRF-CEM", "value": "1650 nM (inactive)"}, {"measurement": "GI50", "setting": "COLO 205", "value": "3250 nM (inactive)"}, {"measurement": "GI50", "setting": "DU-145", "value": "2400 nM (inactive)"}, {"measurement": "GI50", "setting": "EKVX", "value": "3610 nM (inactive)"}, {"measurement": "GI50", "setting": "HCC 2998", "value": "1660 nM (inactive)"}, {"measurement": "GI50", "setting": "HCT-116", "value": "2990 nM (inactive)"}, {"measurement": "GI50", "setting": "HCT-15", "value": 2900, "unit": "nM"}, {"measurement": "GI50", "setting": "HL-60", "value": "1700 nM (inactive)"}, {"measurement": "GI50", "setting": "HOP-62", "value": "2680 nM (inactive)"}, {"measurement": "GI50", "setting": "HOP-92", "value": "1690 nM (inactive)"}, {"measurement": "GI50", "setting": "HT-29", "value": "3430 nM (inactive)"}, {"measurement": "GI50", "setting": "Hs-578T", "value": "2920 nM (inactive)"}, {"measurement": "GI50", "setting": "IGROV-1", "value": "4030 nM (inactive)"}, {"measurement": "GI50", "setting": "K562", "value": "1930 nM (inactive)"}, {"measurement": "GI50", "setting": "KM12", "value": "2510 nM (inactive)"}, {"measurement": "GI50", "setting": "LOX IMVI", "value": "2770 nM (inactive)"}, {"measurement": "GI50", "setting": "M14", "value": "3130 nM (inactive)"}, {"measurement": "GI50", "setting": "MCF7", "value": "3250 nM (inactive)"}, {"measurement": "GI50", "setting": "MDA-MB-231", "value": "2660 nM (inactive)"}, {"measurement": "GI50", "setting": "MDA-MB-435", "value": "2530 nM (inactive)"}, {"measurement": "GI50", "setting": "MDA-N", "value": "2940 nM (inactive)"}, {"measurement": "GI50", "setting": "MOLT-4", "value": "2840 nM (inactive)"}, {"measurement": "GI50", "setting": "Malme-3M", "value": "9330 nM (inactive)"}, {"measurement": "GI50", "setting": "NCI-H226", "value": "3100 nM (inactive)"}, {"measurement": "GI50", "setting": "NCI-H23", "value": "2600 nM (inactive)"}, {"measurement": "GI50", "setting": "NCI-H460", "value": "1790 nM (inactive)"}, {"measurement": "GI50", "setting": "NCI-H522", "value": "2460 nM (inactive)"}, {"measurement": "GI50", "setting": "NCI/ADR-RES", "value": "3010 nM (inactive)"}, {"measurement": "GI50", "setting": "OVCAR-3", "value": "2320 nM (inactive)"}, {"measurement": "GI50", "setting": "OVCAR-4", "value": "2740 nM (inactive)"}, {"measurement": "GI50", "setting": "OVCAR-5", "value": "7570 nM (inactive)"}, {"measurement": "GI50", "setting": "OVCAR-8", "value": "2330 nM (inactive)"}, {"measurement": "GI50", "setting": "PC-3", "value": "4000 nM (inactive)"}, {"measurement": "GI50", "setting": "RPMI-8226", "value": "1440 nM (inactive)"}, {"measurement": "GI50", "setting": "RXF 393", "value": "1330 nM (inactive)"}, {"measurement": "GI50", "setting": "SF-268", "value": "2700 nM (inactive)"}, {"measurement": "GI50", "setting": "SF-295", "value": "3750 nM (inactive)"}, {"measurement": "GI50", "setting": "SF-539", "value": "2740 nM (inactive)"}, {"measurement": "GI50", "setting": "SK-MEL-28", "value": "5960 nM (inactive)"}, {"measurement": "GI50", "setting": "SK-MEL-2", "value": "1560 nM (inactive)"}, {"measurement": "GI50", "setting": "SK-MEL-5", "value": "4190 nM (inactive)"}, {"measurement": "GI50", "setting": "SK-OV-3", "value": "3620 nM (inactive)"}, {"measurement": "GI50", "setting": "SN12C", "value": "2880 nM (inactive)"}, {"measurement": "GI50", "setting": "SNB-19", "value": "3240 nM (inactive)"}, {"measurement": "GI50", "setting": "SNB-75", "value": "1080 nM (active)"}, {"measurement": "GI50", "setting": "SR", "value": "1060 nM (active)"}, {"measurement": "GI50", "setting": "SW-620", "value": "2540 nM (inactive)"}, {"measurement": "GI50", "setting": "T47D", "value": "2430 nM (inactive)"}, {"measurement": "GI50", "setting": "TK-10", "value": "2590 nM (inactive)"}, {"measurement": "GI50", "setting": "U-251", "value": "1950 nM (inactive)"}, {"measurement": "GI50", "setting": "UACC-257", "value": "4050 nM (inactive)"}, {"measurement": "GI50", "setting": "UACC-62", "value": "2890 nM (inactive)"}, {"measurement": "GI50", "setting": "UO-31", "value": "2820 nM (inactive)"}]}]}
